The source of these data is PMC10223120, “α-Viniferin-Induced Apoptosis through Downregulation of SIRT1 in Non-Small Cell Lung Cancer Cells” (Pharmaceuticals, 2023).

For one data set, the system named is human SIRT1 enzyme. The arrangement: method as in doi:10.1177/1934578X1801301130. The conditions noted are these: cited from earlier work.
The test system of data set [1] is NCI-H460 cells. In words: MTT cell viability assay, NCI-H460 cells. Type of data set: cell-based, human. The procedure:
(§1) The Bioresource Collection and Research Center (BCRC) in Hsinchu, Taiwan provided the NCI-H460 and A549 cell lines, which were cultured in DMEM supplemented with 10% FBS, 100 U/mL penicillin A, and 100 U/mL streptomycin. These cells were kept at a temperature of 37 °C with 5% CO2 and a humidified air environment.
(§2) To investigate the impact of α-viniferin (0–50 μM), ε-viniferin (0–50 μM), and signal transduction inhibitors (20 μM PD98059, 10 μM SB431542, 20 μM SP600125, 20 μΜ LY294002, 10 μM BIRB796, or 10 μM GO6976) on the viability of NCI-H460 or A549 cells were investigated using MTT assay. NCI-H460 or A549 cells were treated with various concentrations of α-viniferin, ε-viniferin, and signal transduction inhibitors and were incubated for 24, 48, or 72 h. Following incubation, 5 mg/mL MTT solution in phosphate-buffered saline (PBS) was added to each well, and the plate was further incubated for 4 h at 37 °C. Following this, the medium was aspirated, and DMSO was utilized to dissolve the MTT-formazan crystals. Finally, the solution was analyzed using a microplate reader at a wavelength of 540 nm.
In general terms: Tetrazolium assays rely on reduction of a dye to a coloured formazan, in cell work by metabolically active cells.

In data set [2] the test system is NCI-H460 cells. As to the kind of experiment: Annexin V/7-AAD double staining, flow cytometry. Type of data set: cell-based, human. The conditions noted are these: 24 h, control 5.3%. The procedure: To investigate the molecular mechanism by which α-viniferin affects NCI-H460 cells, the presence of apoptotic and necrotic cells was analyzed using double staining with annexin V and 7-aminoactinomycin D (7-AAD). Annexin V, which binds to phosphatidylserine (PS), is used as a marker of early-stage apoptosis. The 7-ADD is a fluorescent DNA dye that is excluded from viable cells with intact membranes but can penetrate the plasma membrane of apoptotic and necrotic cells. Double staining with both annexin V and 7-AAD can differentiate between cells in different stages of apoptosis and necrosis. Specifically, cells that are annexin V+/7-AAD- are in early apoptosis, cells that are annexin V+/7-AAD+ are in late apoptosis, and cells that are annexin V-/7-AAD+ are in necrosis. Cells that are annexin V-/7-AAD- are considered viable. […] These findings implied dose-dependent induction of apoptosis by α-viniferin in NCI-H460 cells. The mechanism behind α-viniferin-induced apoptosis in NCI-H460 cells merits further investigation.
The annexin V and 7-ADD double staining was utilized to detect apoptotic and necrotic cells. NCI-H460 cells were treated with α-viniferin at various concentrations (0, 5, 10, 20, and 30 μM) for 24 h. Following treatment, the cells were collected by trypsinization and suspended in a warm medium. The cells in a suspension were centrifuged at 2000× g for 5 min, and the resulting supernatant was removed, leaving the cell pellets. The pellets were subsequently resuspended in 200 µL of PBS and were fixed by adding […]. Next, the cell pellets that had been fixed were resuspended in 500 µL of 1 × annexin V-FITC Binding Buffer, to which 5 µL each of annexin V-FITC and 7-AAD staining reagents were added. The samples were then vortexed gently and incubated for 15 min at 4 °C in the dark. Finally, the samples were analyzed using a BD FACScan™ flow cytometer.

The next data set relates to A549. Also on record: method as in PMID 34728247. The conditions noted are these: A549 cells; cited from earlier work.
Data set [3] can be described thus: Serum AST, CPK, LDH and creatinine in xenograft-bearing mice. Type of data set: in vivo, BALB/c nude mice. The conditions noted are these: 5 mg/kg i.p., five times every week, four weeks. The procedure: (§3) The male BALB/c nude mice utilized in this investigation were obtained from the National Laboratory Animal Breeding and Research Center situated in Taiwan. All animal experimentation procedures were conducted in accordance with National Tsinghua University’s Institutional Animal Care and Use Committee Guidelines (Protocol No. 107049). For this study, the hind leg of five-week-old nude mice was subcutaneously implanted with 1 × 10^6 NCI-H460 cells. Treatment was initiated only after the tumors had grown to a volume of 100–200 mm^3. Subsequently, the nude mice with NCI-H460-cell xenografts were randomly allocated into two groups: experimental and control, each comprising five mice. The experimental group was administered 5 mg/kg α-viniferin through intraperitoneal injection five times every week, while the control group was administered PBS. After four weeks, the mice were euthanized. Tumor weight, vimentin expression, histopathological changes and apoptosis in the tumor section were evaluated using immunohistochemistry (IHC) staining, hematoxylin and eosin staining, and TUNEL assay. The quantification of AST, CPK, LDH, and creatinine levels was carried out following previously described procedures. Briefly, AST, LDH, CPK, and creatinine levels were quantified using commercial kits (Wako Pure Chemical Industries, Osaka, Japan).

Data set [4] concerns NCI-H460 cells. As to the kind of experiment: Immunofluorescence assay of AIF localization (Hoechst 33258 nuclear stain). The data set is classed as cell-based, human. The conditions noted are these: 5, 10, 15, 20, 30 μM, 24 h. The procedure: The immunofluorescence assay was conducted following the method described in a previous study to detect the localization of AIF in NCI-H460 cells after treatment with α-viniferin at various concentrations (0, 5, 10, 15, 20, and 30 μM) for 24 h. After treatment, the cells in a 6-well plate were washed with PBS, and fixed immediately with 4% formaldehyde at room temperature for 15 min. Then, NCI-H460 cells were treated with 0.1% Triton X-100 in PBS at room temperature for 15 min to achieve permeabilization. After that, NCI-H460 cells were incubated with anti-AIF primary antibodies at 4 °C for 24 h, followed by incubation with secondary antibodies conjugated with fluorescein isothiocyanate at 37 °C for 1 h. To stain the cell nuclei, NCI-H460 cells were treated with a solution containing […] Hoechst 33,258 for 30 min. After washing the cells with PBS, they were mounted onto a glass slide for visualization. Confocal laser scanning microscopy was employed to capture the images. The mean fluorescence intensity, which represented the protein level, was analyzed using the Image J software.

A further data set has as its system NCI-H460-cell xenografts. In words: In vivo xenograft tumor growth experiment. The arrangement: species or system BALB/c nude mice. The procedure:
as §3

Another data set concerns A549 lung cancer cells. Also on record: method as in PMID 34728247. The conditions noted are these: cited from earlier work.
The subject of data set [5] is NCI-H460 cells. In words: Western blot of apoptosis-related proteins. The conditions noted are these: 10, 15, 20, 30 μM, 24 h. The data set is classed as cell-based, human. As to the method: The western blot analysis was conducted to check the expression levels of cleaved caspase-3, cleaved PARP, SIRT1, vimentin, and AKT phosphorylation in NCI-H460 cells after treatment with α-viniferin at various concentrations (0, 10, 15, 20, and 30 μM) for 24 h. After treatment, the cells in a 10-cm plate were lysed in an ice-cold lysis buffer, containing protease and […] inhibitors. The Bio-Rad protein assay kit (Bio-Rad Laboratories, Hercules, CA, USA) was utilized to measure the protein concentration in each lysate. Equal amounts of protein (50 μg) were loaded onto each lane, separated using sodium dodecyl sulfate-polyacrylamide gel electrophoresis (SDS-PAGE), and subsequently transferred onto polyvinylidene fluoride (PVDF) membranes. First, the membranes were blocked using 1% BSA in PBS at room temperature for 1 h. Then, the membranes incubated with primary antibodies against full length caspase-3, activated caspase-3, full length PARP, cleaved PARP, SIRT1, vimentin, and AKT phosphorylation, and followed by secondary antibodies conjugated with horseradish peroxidase were added to the samples. Finally, the immunoreactive bands were visualized using an enhanced chemiluminescence (ECL) detection system.
On the technique in general: A western blot detects proteins with antibodies after separation by electrophoresis.

For a further data set, the system named is NSCLC cells. Also on record: method as in PMID 35684095. The conditions noted are these: cited from earlier work.
Data set [6] concerns osteosarcoma cells (U2OS). Also on record: method as in PMID 34728247. The conditions noted are these: cited from earlier work.
The subject of the next data set is osteosarcoma cells (HOS). The arrangement: method as in PMID 34728247. The conditions noted are these: cited from earlier work.
Another data set deals with A549 cells. In words: MTT cell viability assay, A549 cells. The data set is classed as cell-based, human. The conditions noted are these: low doses (20 μM). The procedure:
as §1, §2

[7] abbreviates: 5 mg/kg i.p., five times every week, four weeks, compared with control.

Regarding `Oc1ccc([C@H]2Oc3cc(O)cc(/C=C/c4ccc5c(c4)[C@@H](c4cc(O)cc6c4[C@H](c4cc(O)cc(O)c4)[C@@H](c4ccc(O)cc4)O6)[C@H](c4ccc(O)cc4)O5)c3[C@@H]2c2cc(O)cc(O)c2)cc1` [(−)-vitisin B], in the data set on human SIRT1 enzyme, the “activity of the human SIRT1 enzyme” value is “inhibit the activity”.

On to `O=c1cc(N2CCOCC2)oc2c(-c3ccccc3)cccc12` [LY294002, reference compound], for which the cell viability result in the data set on NCI-H460 cells [1] (inhibitor 20 μM, 24 h) is listed as “decreased cell viability”.

In the case of `COc1cccc(-c2cc(=O)c3ccccc3o2)c1N` [PD98059, reference compound], the cell viability result with NCI-H460 cells [1] (inhibitor 20 μM, 24 h) is recorded as “decreased cell viability”.

Turning to `Oc1ccc([C@H]2c3c(O)cc(O)cc3[C@H]3c4c(cc(O)cc4[C@@H]2c2cc(/C=C/c4cc(O)cc5c4[C@H](c4cc(O)cc(O)c4)[C@@H](c4ccc(O)cc4)O5)ccc2O)O[C@@H]3c2ccc(O)cc2)cc1` [vitisin A], in the data set on human SIRT1 enzyme, the “activity of the human SIRT1 enzyme” value is reported as “inhibit the activity”.

Regarding `Oc1ccc([C@H]2Oc3cc(O)cc4c3[C@@H]2c2cc(O)cc3c2[C@@H](c2cc(O)cc5c2[C@@H]4[C@H](c2ccc(O)cc2)O5)[C@H](c2ccc(O)cc2)O3)cc1` [α-viniferin, α-Viniferin], the “apoptotic cells (early + late apoptotic cells)” value in the data set on NCI-H460 cells [2] (5 μM) turned out to be 7.0%. The “apoptotic cells (early + late apoptotic cells)” value in the data set on NCI-H460 cells [2] (10 μM) is listed as 8.3%. In addition, the “apoptotic cells (early + late apoptotic cells)” value in the data set on NCI-H460 cells [2] (20 μM) is listed as 22.3%. In addition, the “apoptotic cells (early + late apoptotic cells)” value in the data set with NCI-H460 cells [2] (30 μM) came out at 35.0%. Moreover, the apoptosis entry with A549 is “induce apoptosis”. The “liver or kidney function (serum AST, CPK, LDH, creatinine)” value in [3] is on record as “no negative impact”. Further, in the data set on NCI-H460 cells [4], the “AIF translocation to the nucleus” value is “translocated to the nucleus” and the DNA fragmentation entry was “caused DNA fragmentation”. Further, in the data set on NCI-H460 cells [1] (low doses 10–20 μM, 24, 48, 72 h), the cell viability result was “inhibited cell viability in a dose- and time-dependent manner”. Further, the “apoptotic cells in tumor tissue (TUNEL staining)” value in the data set with NCI-H460-cell xenografts (5 mg/kg i.p., five times every week, four weeks) is “increased numbers of apoptotic cells”. Further, in the data set with NCI-H460-cell xenografts (setting [7]), the tumor volume entry was “more significant reduction”, the tumor weight entry is given as “more significant reduction” and the “vimentin expression in tumor (IHC)” value is reported as “reduced”. Moreover, the tumor growth result in the data set on NCI-H460-cell xenografts (5 mg/kg, i.p., five days/week) is recorded as “suppression of tumor growth”. In addition, the “epithelial mesenchymal transition (EMT)” value in the data set with A549 lung cancer cells is “inhibit epithelial mesenchymal transition”. Besides, in the data set with NCI-H460 cells [5], the “protein expression level of SIRT1” value was “decreased the protein expression levels”, the “protein expression level of vimentin” value is listed as “decreased the protein expression levels”, the “protein expression of activated caspase-3” value is “increased the protein expression” and the “protein expression of cleaved PARP” value was “increased the protein expression”. In addition, the AKT phosphorylation entry with NCI-H460 cells [5] (normalized to AKT) is listed as “decreased the protein expression levels”. In addition, the TGF-induced vimentin expression result in the data set with NSCLC cells is reported as “inhibit TGF-induced vimentin expression”. For the same molecule, the apoptosis result in data set [6] was “induce apoptosis”. The apoptosis entry in the data set with osteosarcoma cells (HOS) was “induce apoptosis”.

Take `Oc1ccc(/C=C/c2cc(O)cc3c2[C@@H](c2cc(O)cc(O)c2)[C@H](c2ccc(O)cc2)O3)cc1` [ε-viniferin]: the cell viability result in the data set with A549 cells was “inhibited A549 cell viability”. Further, the figures for the anti-proliferative effect entry in the data set on NCI-H460 cells [1] (20 μM) and with NCI-H460 cells [1] (higher concentrations (above 20 μM)) were “did not exhibit potent anti-proliferative effects” and “did demonstrate such effects”, respectively.

On to (+)-hopeaphenol, for which the “activity of the human SIRT1 enzyme” value in the data set on human SIRT1 enzyme is “inhibit the activity”.
